# Results as given in PubChem BioAssay (NCI).
#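 Five concentrations, 48 hours, 96-well plates. The concentration for full growth arrest is given as TGI.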
# Legend:
# Assay in all cases: NCI anticancer screen, dose series, 48 h
# [1] = system: RPMI-8226 leukemia
# [2] = system: HL-60(TB) leukemia
# [3] = system: SNB-19 CNS
# [4] = system: MOLT-4 leukemia
# [5] = system: NCI-H23 lung
# [6] = system: NCI-H522 lung
# [7] = system: SF-539 CNS
# [8] = system: OVCAR-8 ovarian
# [9] = system: MDA-N
# [10] = system: HS 578T breast
# [11] = system: TK-10 renal
# [12] = system: T-47D breast
# [13] = system: MCF7 breast
# [14] = system: MALME-3M melanoma
# [15] = system: OVCAR-4 ovarian
# [16] = system: EKVX NSCLC
# [17] = system: SW-620 colon
# [18] = system: HCT-15 colon
# [19] = system: SK-MEL-28 melanoma
# [20] = system: OVCAR-5 ovarian
Structure (SMILES),TGI [1],TGI [2],TGI [3],TGI [4],TGI [5],TGI [6],TGI [7],TGI [8],TGI [9],TGI [10],TGI [11],TGI [12],TGI [13],TGI [14],TGI [15],TGI [16],TGI [17],TGI [18],TGI [19],TGI [20]
CC(=O)OCC1OC(c2c(OC(C)=O)cc(C)c3c(=O)cc(/C(C(C)=O)=C(\C)O)oc23)C(OC(C)=O)C(OC(C)=O)C1OC(C)=O (stereo not given),> 100 µM,> 100 µM,> 100 µM,> 100 µM,> 100 µM,> 100 µM,> 100 µM,> 100 µM,> 100 µM,> 100 µM,> 100 µM,> 100 µM,> 100 µM,> 100 µM,> 100 µM,> 100 µM,> 100 µM,> 100 µM,> 100 µM,> 100 µM
C/C=C/C=C\C=C/C(O)C(C)C(CCC(C)C1OC(=O)C=CC1C)OP(=O)(O)O (stereo not given),0.491 µM,0.17 µM,1.99 µM,0.613 µM,4.83 µM,2.89 µM,1.7 µM,1.26 µM,1.32 µM,4.28 µM,1.91 µM,1.46 µM,0.559 µM,0.641 µM,2.86 µM,1.54 µM,1.67 µM,1.97 µM,2.12 µM,0.574 µM
O=C(NCCCNCCN1C(=O)c2cccc3cc([N+](=O)[O-])cc(c23)C1=O)c1cc(-c2ccccc2)nc2ccccc12,7.66 µM,5.76 µM,18.9 µM,6.01 µM,7.55 µM,9.95 µM,5.07 µM,17 µM,2.89 µM,12.5 µM,21.8 µM,23.7 µM,6.51 µM,3.24 µM,15.1 µM,22.8 µM,5.37 µM,17.2 µM,3.44 µM,18.6 µM
Cc1cc2nc(C=C(C(F)(F)F)C(F)(F)F)sc2cc1C,1.41 µM,3.86 µM,9.89 µM,> 100 µM,3.5 µM,1.01 µM,4.31 µM,4.4 µM,> 19.8 µM,9.69 µM,5.91 µM,1.78 µM,12.5 µM,4.56 µM,14.9 µM,7.27 µM,10.7 µM,8.91 µM,14.5 µM,8.66 µM
O=C1CSC(c2ccccc2)N1c1ccc(-n2c(-c3ccccc3)nc3ccccc3c2=O)cc1 (stereo not given),> 100 µM,> 100 µM,> 100 µM,> 100 µM,> 100 µM,> 100 µM,> 100 µM,> 100 µM,> 100 µM,> 100 µM,> 100 µM,> 100 µM,> 100 µM,> 100 µM,> 100 µM,> 100 µM,> 100 µM,> 100 µM,> 100 µM,> 100 µM
O=[N+]([O-])c1cccc(-c2ncc3c(n2)-c2ccccc2C3)c1,> 100 µM,> 100 µM,72.4 µM,> 100 µM,> 100 µM,> 100 µM,> 100 µM,> 100 µM,> 100 µM,> 100 µM,> 100 µM,> 100 µM,> 100 µM,> 100 µM,> 100 µM,> 100 µM,> 100 µM,> 100 µM,> 100 µM,> 100 µM
O=C1OC(C2Cc3ccc4c(c3C2=O)CCC4)c2ccccc21 (stereo not given),85.1 µM,83.1 µM,> 100 µM,> 100 µM,> 100 µM,> 100 µM,> 100 µM,> 100 µM,> 100 µM,> 100 µM,> 100 µM,> 100 µM,> 100 µM,> 100 µM,> 100 µM,> 100 µM,> 100 µM,> 100 µM,> 100 µM,> 100 µM
Cc1cc(=O)oc2c(CNC(CO)C(=O)O)c(O)ccc12 (stereo not given),> 100 µM,> 100 µM,> 100 µM,> 100 µM,> 100 µM,> 100 µM,> 100 µM,> 100 µM,> 100 µM,> 100 µM,> 100 µM,> 100 µM,> 100 µM,> 100 µM,> 100 µM,> 100 µM,> 100 µM,> 100 µM,> 100 µM,> 100 µM
